Reference: patent US11565005B2, “Dota-hapten compositions for anti-dota/anti-tumor antigen bispecific antibody pretargeted radioimmunotherapy” (MEMORIAL SLOAN KETTERING CANCER CENTER, priority 2017, dated 2023)
Marks after values point to notes of the source that are not given here.

How the values were obtained:
anti-HER2-C825 = assay: In vitro mixing with DOTA-PRIT BsAb followed by size-exclusion chromatography; format: binding
Description: In vitro Mixing of [^225Ac]Proteus-DOTA with a DOTA-PRIT BsAb, followed by In vivo Targeting Studies. […] After one week of storage of [^225Ac]Proteus-DOTA at room temperature, an in vitro mixing experiment consisting of mixing 145 μL of 6.91 mg/mL of anti-HER2-C825 (4.8 nmol of BsAb or 9.6 nmol of C825) and 90 μL of [^225Ac]Proteus-DOTA (488 nCi/8.64 nmol) for 1 h at room temperature (final volume 235 μL). As a control, 1 mg of trastuzumab (6.67 nmol) with also mixed in vitro with 90 μL of [^225Ac]Proteus-DOTA (468 nCi/8.64 nmol) in the same manner as the anti-HER2-C825. These two solutions were run separately on PD-10 size-exclusion columns pre-equilibrated with saline+1% human serum albumin, and were compared with the column elution of 90 μL (488 nCi/8.64 nmol) of [^225Ac]Proteus-DOTA only. Elution fractions were counted on the gamma-counter using an open window setting.
This was done by mixing the BsAb (˜210 kD) in slight molar excess to [^225Ac]Proteus-DOTA (9.6 nmol of C825/8.6 nmol of [^225Ac]Proteus-DOTA), followed by incubation at room temperature for 1 hour.

[1] = tested on: GPA33-expressing SW1222 xenografts; assay: Anti-GPA33-DOTA-PRIT + [^225Ac]Proteus-DOTA biodistribution; conditions: for Blood uptake / SW1222 tumor uptake: pretargeted with huA33-C825 + clearing agent
Description: Biodistribution Experiments. A treatment cycle of anti-GPA33 DOTA-PRIT consisted of three separate intravenous injections via the tail vein: 0.25 mg of huA33-C825 antibody (described in WO2016/130539) at t=−28 h, then […] of clearing agent (500 kD-dextran-DOTA-Bn(Y)) at t=−4 h, and [^225Ac]Proteus-DOTA at t=0. For ex vivo biodistribution analysis following the radiohaptens or anti-HER2-C825/[^225Ac]Proteus-DOTA, mice were euthanized by CO2(g) asphyxiation, and the tumors and selected organs were harvested, rinsed with water, air-dried, weighed, and radioassayed by gamma scintillation counting (Perkin Elmer Wallac Wizard 3″, Perkin Elmer, Waltham, Mass.). Count rates were background- and decay-corrected, converted to activities using a system calibration factor specific for the isotope, normalized to the administered activity, and expressed as average percent injected dose per gram (% ID/g)±1 standard deviation. Differences in radioactivity concentration in tumor and various tissues were analyzed by Student's unpaired t test when appropriate.
Biodistribution Studies Following In vivo Targeting with Anti-GPA33-DOTA-PRIT+[^225Ac]Proteus-DOTA. [^225Ac]Proteus-DOTA was prepared to a final specific activity of 0.20 Ci/g or 274 Ci/mol and injected into groups of animals within 24-48 hours of preparation. Animals that had received injections of huA33-C825 and clearing agent were injected with […] of [^225Ac]Proteus-DOTA that was prepared approximately 24 hours prior. The following day, animals were sacrificed for ex vivo biodistribution assessment at 24 hours post injection of [^225Ac]Proteus-DOTA in tumors and select normal tissues. A control group of non-tumor bearing animals were injected with […] of [^225Ac]Proteus-DOTA that was prepared approximately 48 hours prior, and were sacrificed 1 hour post injection of [^225Ac]Proteus-DOTA for ex vivo biodistribution assessment in normal tissues. Carcass radioactivity was not collected during this study.
A control group of healthy nude mice were injected with [^225Ac]Proteus-DOTA only (198 pmol, 1.85 kBq [50 nCi]) to evaluate normal tissue uptake of the [^225Ac]Proteus-DOTA preparation.
These mice were sacrificed 24 h p.i. of [^225Ac]Proteus-DOTA for biodistribution assay. All animals were sacrificed at 24 h p.i. for biodistribution.

[2] = Dose-escalation toxicology study of [^225Ac]Proteus-DOTA in healthy nude mice; format: in vivo
Description: The maximum tolerated dose was not reached. Treated animal weights plotted as the percentage of pre-treatment baseline weight. Asterisk (*) indicates mouse required euthanasia or was discovered deceased. Data is presented as mean ±SD.
Toxicology study of [^225Ac]Pr-DOTA in healthy mice. A dose-escalation toxicity study was performed to evaluate any morbidity and histopathological damage attributed to [^225Ac]Proteus-DOTA. […] Unscheduled mortality (mice found dead or found sick and euthanized) were submitted for pathology. […] A total of three unscheduled mortalities occurred: 2/5 from the 0.5 μCi dose group; one on day 36 that was submitted for necropsy because of 20% weight loss-no gross pathologic or histopathologic lesions were observed, and no significant findings were observed on hematology and serum chemistry; and by the time the other mouse was found dead on day 144, necropsy was not possible. In addition, one mouse from group 8 μCi was euthanized after 123 days with a Staphylococcus bacterial infection. The significant findings in this mouse were histiocytic and eosinophilic myocardis, eosinophilic interstitial pneumonia, soft tissue hemorrhages, marked thrombocytopenia, and mild anemia with elevation of reticulocytes. The myocarditis, pnemonia, and mild anemia were related to some findings observed at scheduled sacrifice. Such thrombocytopenia with secondary hemorrhages was not observed in other mice in this study. Serum chemistry was unremarkable.

[3] = 24 h p.i., n = 3, listed as [^225Ac] Proteus-DOTA

In the case of `O=C([O-])CN1CCN(CC(=O)[O-])CCN(CC(=O)NCCOCCOCCOCCOCCNC(=S)Nc2ccc(CC3CN(CC(=O)[O-])CCN(CC(=O)[O-])CCN(CC(=O)[O-])CCN3CC(=O)[O-])cc2)CCN(CC(=O)[O-])CC1.[225Ac+3].[Lu+3]` (stereo not drawn) [[^225Ac]Proteus-DOTA], the “remaining activity recovered in elution fractions between 4.6-7.1 mL” value (anti-HER2-C825; PD-10 size-exclusion column) was 90%, the “recovered ^225Ac-activity eluting within the first 4.1 mL” value (anti-HER2-C825; PD-10 size-exclusion column after 1 h mixing at room temperature) was 9.3% and the Blood uptake ([1]; 24 h p.i., n = 3) was 0.94±0.26 % ID/g. The SW1222 tumor uptake ([1]; 24 h p.i., n = 3) was 16.71±2.95 % ID/g, the Blood uptake [1, 3] was 0.94 ± 0.26^a % ID/g and the SW1222 tumor uptake [1, 3] was 16.71 ± 2.95 % ID/g. For the same compound, the Bone uptake ([1]; pretargeted, 24 h p.i.) was “undetectable”, the “Tumor-to-tissue ratio, Blood” value ([1]; pretargeted, 24 h p.i.) was 17.9 ± 4.0 and the “Tumor-to-tissue ratio, Heart” value ([1]; pretargeted, 24 h p.i.) was 60.4 ± 35.8. For the same compound, the “Tumor-to-tissue ratio, Kidneys” value ([1]; pretargeted, 24 h p.i.) was 15.5 ± 4.8, the “Tumor-to-tissue ratio, Large Intestine” value ([1]; pretargeted, 24 h p.i.) was 147.5 ± 90.9 and the “Tumor-to-tissue ratio, Liver” value ([1]; pretargeted, 24 h p.i.) was 11.9 ± 4.2. For the same compound, the “Tumor-to-tissue ratio, Lungs” value ([1]; pretargeted, 24 h p.i.) was 24.0 ± 13.5, the “Tumor-to-tissue ratio, Muscle” value ([1]; pretargeted, 24 h p.i.) was 128.6 ± 129.2 and the “Tumor-to-tissue ratio, Small Intestine” value ([1]; pretargeted, 24 h p.i.) was 102.3 ± 67.1. For the same compound, the “Tumor-to-tissue ratio, Spleen” value ([1]; pretargeted, 24 h p.i.) was 31.1 ± 31.3, the “Tumor-to-tissue ratio, Stomach” value ([1]; pretargeted, 24 h p.i.) was 238.8 ± 150.7 and the “blood uptake (percent injected activity per gram of tissue)” value ([1]; pretargeted, 24 h p.i.) was 0.94±0.26 % IA/g. The “kidney uptake (percent injected activity per gram of tissue)” value ([1]; pretargeted, 24 h p.i.) was 1.08±0.55 % IA/g, the “liver uptake (percent injected activity per gram of tissue)” value ([1]; pretargeted, 24 h p.i.) was 1.40±0.47 % IA/g and the Bone uptake ([1]; pretargeted, 24 h p.i., n = 3) was 0.00 ± 0.00 % ID/g. The Heart uptake ([1]; pretargeted, 24 h p.i., n = 3) was 0.28 ± 0.28 % ID/g, the Kidneys uptake ([1]; pretargeted, 24 h p.i., n = 3) was 1.08±0.55 % ID/g and the “Large Intestine uptake” value ([1]; pretargeted, 24 h p.i., n = 3) was 0.11 ± 0.12 % ID/g. It also gave a Liver uptake ([1]; pretargeted, 24 h p.i., n = 3) of 1.40 ± 0.82 % ID/g, a Lungs uptake ([1]; pretargeted, 24 h p.i., n = 3) of 0.70 ± 0.67 % ID/g and a Muscle uptake ([1]; pretargeted, 24 h p.i., n = 3) of 0.13 ± 0.23 % ID/g. For the same compound, the “Small Intestine uptake” value ([1]; pretargeted, 24 h p.i., n = 3) was 0.16 ± 0.18 % ID/g, the Spleen uptake ([1]; pretargeted, 24 h p.i., n = 3) was 0.54 ± 0.93 % ID/g and the Stomach uptake ([1]; pretargeted, 24 h p.i., n = 3) was 0.07 ± 0.08 % ID/g. The Kidneys uptake ([1]; pretargeted, 24 h p.i., n = 3, listed as [^225Ac] Proteus-DOTA) was 1.08 ± 0.55 % ID/g, the “tumor uptake (percent injected activity per gram of tissue)” value ([1]; pretargeted, SW1222, 24 h p.i.) was 16.71±2.95 % IA/g and the “toxicity (defined as >10% weight loss)” value ([2]; 0.25-8 μCi/mouse, 145 days) was “no toxicity was observed”. The “mice affected by histiocytic and eosinophilic inflammation” value (“mice affected” for short) ([2]; 0.25 μCi) was 0/5, the “mice affected” value ([2]; 0.5 μCi) was 0/4 and the unscheduled mortalities ([2]; 0.5 μCi dose group (day 36 and day 144)) was 2/5. The “mice affected” value ([2]; 1 μCi) was 0/5, the “mice affected” value ([2]; 2 μCi) was 1/5 and the “mice affected” value ([2]; 4 μCi) was 1/5. For the same compound, the “mice affected” value ([2]; 8 Ci group) was 3/5, the “unscheduled mortalities (euthanized, Staphylococcus bacterial infection)” value ([2]; 8 μCi group, after 123 days) was “one” and the “organ weights at necropsy” value ([2]; 145 days, varying dose levels) was “No significant group differences”. The “unscheduled mortalities, total” value ([2]; all dose groups, 145 days) was “three”, the “radiation-induced histologic organ damage at necropsy” value ([2]; any dose level, 145 days) was “no radiation-induced histologic organ damage” and the “effect on serum chemistry” value ([2]; any dose level, n=29) was “No effect”. For the same compound, the “overall toxicity, acute or chronic radiation damage to normal tissues” value ([2]; doses as high as 8 μCi (296 kBq)/mouse) was “nontoxic”, the “decrease of red blood cells mass” value ([2]; highest dose group (8 μCi)) was roughly 10% and the maximum tolerated dose ([2]; single i.v. doses 0.25-8 μCi/mouse) was “not reached”.
